Measured values published in patent publication US20220251079A1, “BENZO[B][1,8]NAPHTHYRIDINE ACETIC ACID DERIVATIVES AND METHODS OF USE” (STINGTHERA, INC., priority 2019, published 2022).

Tests used:
STING protein = biological target: T1, STING protein (Homo sapiens, UniProt Q86WV6, H232R); assay: Cell based reporter assay of IRF activation (THP1-dual-KI R232, IRF luciferase); conditions: THP-1; read-out: THP1-dual-KI R232_IRF(Luciferase)_Activity Maximum measured (%)
T1 construct: host or cells: THP-1 dual reporter cells, TMEM173 modified from HAQ to R232 (THP1-dual-KI R232)
Excerpt: Cell reporter assays were developed to measure the ability of compounds of the application to activate the STING protein and activate both IRF/IFN and the NFkB signaling pathways in the myeloid derived cell line THP-1, which is commercially available from several suppliers. Briefly, THP-1 monocytes were transfected and selected for stable integration of 2 reporter constructs. Clones incorporating stably integrated vectors were further selected by antibiotic resistance to blastocidin and zeocin. The reporter constructs included: (1) firefly luciferase reporter gene under the control of an ISG54 promoter fused to five interferon (IFN)-stimulated response elements to measure IRF transcription factor binding activity and (2) secreted embryonic alkaline phosphatase reporter gene under transcription control of an IFN-beta minimal promoter fused to 5 copies of the NFkB consensus transcriptional response element and 3 copies of the c-Rel binding site.
The resulting THP-1 cell line was further modified to incorporate 3 amino acid point mutations (H71R A230G Q293R). This modification of the native TMEM173 gene in THP-1 cells (HAQ) was designed to produce a cell reporter that expressed the most common allelic variant in the human population (THP-1 R232, available from InvivoGen). Alternatively, the TMEM173 gene was knocked out to provide a congenic control to counter-screen for compound activation that was independent of the STING protein (THP-1 STING KO).
Once cell lines were established, reporter assay protocols were developed and optimized to screen small molecule compounds for agonist activity. Assay optimization for efficacy and Z′ value included titration of the following parameters:
1. No pre-activation with PMA
2. […]cells/well in 96 well plate format
7. Cell Titer Glo reagent (Promega) following supermatant removal
9. 8 point, 2 fold, duplicate starting at 150 μM PP28T

[1] = biological target: T2, human STING protein (140-379) (Homo sapiens, UniProt Q86WV6, H232R); assay: Radiometric filtration binding competition assay (WT_FBA_HIS-SUMO-hSWAT); conditions: read-out: WT-hSWAT IC50
T2 construct: 6XHIS-SUMO-hSTING (140-379); made in house; host or cells: BL-21(DE3) E. coli, pET vector
Protocol: A radiometric filtration binding competition assay was performed to quantify the binding affinity of compounds of the present application for the human or mouse STING protein, or associated HAQ human isoform. The competition format filtration binding assay detects the ability of small molecule compounds from binding to and inhibiting the subsequent binding of a tritiated [H3] […] The resulting dose response was fit by non-linear regression to determine an IC50 value, from which a Ki value for each compound was extrapolated.
Briefly, the recombinant C-terminal ligand binding domain of the human STING protein (140-379) or mouse STING protein (139-328) [0.5 μM] was incubated in the presence of a compound of the present application (8 point, 2 fold dilution starting at 300 μM) for 30 min or under control conditions. […] The resulting complexes were then filtered, dried, and scintillation fluid was added and the remaining radio signal was measured to determine the degree of compound ligand inhibition. This assay format was optimized for both the WT and HAQ isoforms of the human protein and the mouse orthologue protein.
Parameters optimized: • a. Form of protein: 6×HIS-SUMO tag or untagged • b. Concentration of target protein: Minimum concentration that achieved >80 max signal • c. Assay DMSO concentration: 10%-0.1% • d. Assay Buffer: Base (Tris or phosphate), Salt concentration, +/−Tween (0.1-2%) • e. […] Probe Concentration: Minimum concentration that achieved max assay window • g. Assay Format: Scintillation Proximity Bead or Filtration Binding Plate • h. Assay Plate: 384 vs 96 well format • i. Assay incubation times for successive incubation steps
WT-hSWAT: WT_FBA_HIS-SUMO-hSWAT IC50 (μM) (“WT”=Wild-type); and WT-mSWAT: MOUSE_FBA_HIS-SUMO-mSWAT C50 (μM) which is the mouse isoform of STING protein.

hSTING-R232 = biological target: T3, hSTING-R232 (Homo sapiens, UniProt Q86WV6, H232R); assay: STING Differential Scanning Fluorimetry (DSF) assay, human; type: binding; conditions: human STING R232-WT, 5 μM protein
T3 construct: recombinant mouse or human STING protein (aa140-379); 6xHis-SUMO elsewhere) (cleaved yes); made in house
Protocol: A STING DSF assay was performed to determine protein thermostability shift in response to small molecule ligand binding. A STING thermostability shift assay based on differential scanning fluorimetry was used to measure (1) the net shift in melting temperature (ΔTm)between the apo and ligand-bound states of the STING protein and (2) the concentration of the thermal denaturation transition (FC50) as a surrogate measure of binding affinity (Kd). Briefly, recombinant mouse or human STING protein (aa140-379) comprising the C-terminal binding domain (R232-WT) were purified by affinity chromatography and further processed to remove the purification tag, followed by gel filtration to achieve purity >95%. Protein in assay buffer was transferred to a 384 well plate and incubated with the hydrophobic fluorescent dye SYBR Orange. A temperature ramp was applied to the plate and the resulting dye fluorescence was plotted as a function of temperature. The first derivative of this function (dF/dT) was then used to extrapolate the melting temperature of the protein at various concentrations of compound and determine the thermal denaturation profile of a protein/compound complex.
2. 5 μM purified Target STING Protein
4. Buffer: 100 mM NaCl, 30 mM HEPES, pH 7.5
5. Thermal Ramp: 0.5° C./min
7. 11 point, 2 fold dilution, duplicate, 300 μM high concentrations

T1 sequence (Q86WV6 whole entry H232R): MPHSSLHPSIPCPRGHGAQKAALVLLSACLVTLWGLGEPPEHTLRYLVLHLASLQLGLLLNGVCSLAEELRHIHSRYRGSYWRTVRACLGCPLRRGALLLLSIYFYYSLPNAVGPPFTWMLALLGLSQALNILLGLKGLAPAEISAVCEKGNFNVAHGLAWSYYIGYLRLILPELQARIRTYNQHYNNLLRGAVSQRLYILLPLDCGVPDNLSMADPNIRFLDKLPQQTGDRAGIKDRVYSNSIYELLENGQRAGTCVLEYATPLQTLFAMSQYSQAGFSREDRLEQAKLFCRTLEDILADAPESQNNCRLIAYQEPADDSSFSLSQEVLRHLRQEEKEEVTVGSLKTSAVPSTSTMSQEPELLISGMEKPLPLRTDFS
T3 sequence (Q86WV6 140-379 H232R): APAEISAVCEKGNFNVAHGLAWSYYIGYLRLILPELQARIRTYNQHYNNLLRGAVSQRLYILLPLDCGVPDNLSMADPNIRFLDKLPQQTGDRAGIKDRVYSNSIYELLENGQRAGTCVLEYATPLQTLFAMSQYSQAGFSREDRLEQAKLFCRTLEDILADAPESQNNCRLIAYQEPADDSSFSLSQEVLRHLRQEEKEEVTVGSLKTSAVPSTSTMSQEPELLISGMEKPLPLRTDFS
T2 sequence (Q86WV6 140-379 H232R): as above

| Emax (STING protein) [%] | IC50 [1] [µM] | WT_DSF_hSWAT Tm Shift (° C.) (hSTING-R232) | SMILES |
| --- | --- | --- | --- |
| > 50 | 100 to 300 | C (“C” = 2-7° C.) | CSc1c(Cl)ccc2c(=O)c3ccc(C(C)=O)nc3n(CC(=O)O)c12 [Compound 32, sodium 2-(2-acetyl-8-chloro-9-(methylthio)-5-oxobenzo[b][1,8]naphthyridin-10(5H)-yl)acetate] |
| > 50 | 20 to 100 | D (“D” > 7° C.) | CCOc1c(Cl)ccc2c(=O)c3ccc(N(C)CC4CCOCC4)nc3n(CC(=O)O)c12 [Compound 33, 2-(8-chloro-9-ethoxy-2-(methyl((tetrahydro-2H-pyran-4-yl)methyl)amino)-5-oxobenzo[b][1,8]naphthyridin-10(5H)-yl)acetic acid] |
| 25 to 50 | 20 to 100 | D (“D” > 7° C.) | CSc1c(Cl)ccc2c(=O)c3ccc(N(C)CCS(C)(=O)=O)nc3n(CC(=O)O)c12 [Compound 34, Sodium 2-{8-chloro-2-[(2-methanesulfonylethyl)(methyl)amino]-9-(methylsulfanyl)-5-oxobenzo[b]1,8-naphthyridin-10-yl}acetate] |
| > 50 | 20 to 100 | D (“D” > 7° C.) | CSc1c(Cl)ccc2c(=O)c3ccc(N(C)CCS(=O)(=O)C(C)C)nc3n(CC(=O)O)c12 [Compound 35, sodium 2-(8-chloro-2-{methyl[2-(propane-2-sulfonyl)ethyl]amino}-9-(methylsulfanyl)-5-oxobenzo[b]1,8-naphthyridin-10-yl)acetate] |
| > 50 | 20 to 100 | D (“D” > 7° C.) | CSc1c(Cl)ccc2c(=O)c3ccc(N(C)CC4CC(F)(F)C4)nc3n(CC(=O)O)c12 [Compound 36, Sodium 2-(8-chloro-2-(((3,3-difluorocyclobutyl)methyl)(methyl)amino)-9-(methylthio)-5-oxobenzo[b][1,8]naphthyridin-10(5H)-yl)acetate] |
| > 50 | 20 to 100 | D (“D” > 7° C.) | CSc1c(Cl)ccc2c(=O)c3ccc(N(CC4CC4)CC4CC(F)(F)C4)nc3n(CC(=O)O)c12 [Compound 37, sodium 2-(8-chloro-2-((Cyclopropylmethyl)((3,3-difluorocyclobutyl)methyl)amino)-9-(methylthio)-5-oxobenzo[b][1,8]naphthyridin-10(5H)-yl)acetate] |
| > 50 | 20 to 100 | D (“D” > 7° C.) | CSc1c(Cl)ccc2c(=O)c3ccc(N(CC4CC4)CC4COC4)nc3n(CC(=O)O)c12 [Compound 38, sodium 2-(8-chloro-2-((cyclopropylmethyl)(oxetan-3-ylmethyl)amino)-9-(methylthio)-5-oxobenzo[b][1,8]naphthyridin-10(5H)-yl)acetate] |
| > 50 | 20 to 100 | D (“D” > 7° C.) | COC1CC(CN(C)c2ccc3c(=O)c4ccc(Cl)c(SC)c4n(CC(=O)O)c3n2)C1 (stereo not drawn) [Compound 39, Sodium 2-(8-chloro-2-(((3-methoxycyclobutyl)methyl)(methyl)amino)-9-(methylthio)-5-oxobenzo[b][1,8]naphthyridin-10(5H)-yl)acetate] |
| > 50 | 20 to 100 | D (“D” > 7° C.) | COC1CC(CN(CC2CC2)c2ccc3c(=O)c4ccc(Cl)c(SC)c4n(CC(=O)O)c3n2)C1 (stereo not drawn) [Compound 40, sodium 2-(8-chloro-2-((cyclopropylmethyl)((3-methoxycyclobutyl)methyl)amino)-9-(methylthio)-5-oxobenzo[b][1,8]naphthyridin-10(5H)-yl)acetate] |

The next lines start with the compound.

| SMILES | Emax (STING protein) [%] | IC50 [1] [µM] | WT_DSF_hSWAT Tm Shift (° C.) (hSTING-R232) |
| --- | --- | --- | --- |
| CSc1c(Cl)ccc2c(=O)c3ccc(C(C)(C)C#N)nc3n(CC(=O)O)c12 [Compound 24, sodium 2-(8-chloro-2-(2-cyanopropan-2-yl)-9-(methylthio)-5-oxobenzo[b][1,8]naphthyridin-10(5H)-yl)acetate] | > 50 | 20 to 100 | D (“D” > 7° C.) |
| CCOc1c(Cl)ccc2c(=O)c3ccc(C(C)(C)C#N)nc3n(CC(=O)O)c12 [Compound 25, sodium 2-(8-chloro-2-(2-cyanopropan-2-yl)-9-ethoxy-5-oxobenzo[b][1,8]naphthyridin-10(5H)-yl)acetate] | > 50 | 20 to 100 | D (“D” > 7° C.) |
| CN(C)c1c(Cl)ccc2c(=O)c3ccc(N(C)CC4CC(F)(F)C4)nc3n(CC(=O)O)c12 [Compound 26, sodium 2-(8-chloro-2-(((3,3-difluorocyclobutyl)methyl) (methyl)amino)-9-(dimethylamino)-5-oxobenzo[b][1,8]naphthyridin-10(5H)-yl)acetate] | > 50 | < 20 | D (“D” > 7° C.) |
| CSc1c(Cl)ccc2c(=O)c3ccc(N(C)CC4CCOCC4)nc3n(CC(=O)O)c12 [Compound 27, 2-(8-chloro-2-(methyl((tetrahydro-2H-pyran-4-yl)methyl)amino)-9-(methylthio)-5-oxobenzo[b][1,8]naphthyridin-10(5H)-yl)acetic acid] | > 50 | 20 to 100 | D (“D” > 7° C.) |
| COCCN(c1ccc2c(=O)c3ccc(Cl)c(SC)c3n(CC(=O)O)c2n1)C1CC1 [Compound 28, sodium 2-(8-chloro-2-(cyclopropyl(2-methoxyethyl)amino)-9-(methylthio)-5-oxobenzo[b][1,8]naphthyridin-10(5H)-yl)acetate] | > 50 | < 20 | D (“D” > 7° C.) |
| CCOc1c(Cl)ccc2c(=O)c3ccc(N(CCOC)C4CC4)nc3n(CC(=O)O)c12 [Compound 29, sodium 2-(8-chloro-2-(cyclopropyl(2-methoxyethyl)amino)-9-ethoxy-5-oxobenzo[b][1,8]naphthyridin-10(5H)-yl)acetate] | > 50 | 20 to 100 | D (“D” > 7° C.) |
| CCN(c1ccc2c(=O)c3ccc(Cl)c(SC)c3n(CC(=O)O)c2n1)C1COC1 [Compound 30, sodium 2-(8-chloro-2-(ethyl(oxetan-3-yl)amino)-9-(methylthio)-5-oxobenzo[b][1,8]naphthyridin-10(5H)-yl)acetate] | > 50 | < 20 | D (“D” > 7° C.) |
| CCOc1c(Cl)ccc2c(=O)c3ccc(C(C)=O)nc3n(CC(=O)O)c12 [Compound 31, sodium 2-(2-acetyl-8-chloro-9-ethoxy-5-oxobenzo[b][1,8]naphthyridin-10(5H)-yl)acetate] | > 50 | 100 to 300 | C (“C” = 2-7° C.) |
